Measurements taken from paper PMC4534190, “Characterization of the MUC1-C Cytoplasmic Domain as a Cancer Target” (PLoS ONE, 2015).
Blank lines part the entries; values can stand above or below the molecule they belong to. Non-standard residues stand in square brackets, D forms with d. Residues, ends and D or L forms follow the SMILES beside them. No end group written: not given here. *: point of attachment. FITC = O=C1OC2(c3ccc(O)cc3Oc3cc(O)ccc32)c2ccc(NC(=S)*)cc21

What was measured:
[1] = test system: GST-MUC1-CD(AQA); assay: Binding to GST-MUC1-CD(AQA) mutant; details: CQC motif mutated to AQA; only background fluorescence; data not shown; FITC-labeled peptide, 1 h at 37°C
Method: Binding affinities of FITC-GO-202 and FITC-GO-203 were determined by the saturation binding method. In short, 96-well glutathione- or nickel-coated plates (Thermo Fisher, Waltham, MA) were incubated with 150 μl of PBS buffer containing 21.45 μg/ml of GST-MUC1-CD, GST-MUC1-CD(AQA) or His-MUC1-CD overnight at 4°C followed by washing with 50 mM Tris and 150 mM NaCl containing 0.1% Tween-20 (TBST), and blocking with 0.5% BSA in TBS. The plates were then washed 3 times with TBST. FITC-GO-202 or FITC-GO-203 was added to the wells at 0.19 μM to 25 μM. Nonspecific binding was determined in the presence of GST alone. Plates were incubated for 1 h at 37°C on a shaker followed by washing 3 times with binding buffer. Fluorescence intensity was determined on an Infinite M1000 PRO Tecan Microplate Reader (Tecan, NC) with excitation at 490 nm and emission at 525 nm. GraphPad Prism 4.0 Software (San Diego, CA) was used to calculate the equilibrium dissociation constant (Kd) by a non-linear regression method.
(§1) Vectors expressing GST-MUC1-CD, GST-MUC1-CD(AQA) and His-MUC1-CD, GFP-MUC1-CD and FLAG-MUC1-CD have been described. His-tagged MUC1-CD (rat and dog) were cloned in pET28a vector (Clontech, Mountain View, CA) and expressed in E. coli BL21(DE3).

[2] = test system: endogenous MUC1-C; assay: Binding to endogenous MUC1-C in ZR-75-1 cells, coimmunoprecipitation; assay type: cell-based, human; details: 5 μM FITC-GO-203 overnight, non-reducing
Method: (§2) Human ZR-75-1 breast cancer (ATTC) and H1975 lung cancer (ATTC) cell lines were grown in RPMI 1640 supplemented with 10% heat-inactivated fetal bovine serum (HI-FBS), 100 units/ml penicillin, and 100 μg/ml streptomycin. 293T cells were grown in DMEM with 10% HI-FBS, antibiotics, and 2 mmol/L L-glutamine. Cells were treated with FITC conjugated-GO-202 (FITC-GO-202), FITC-GO-203 or unconjugated GO-203 synthesized by the MIT Biopolymer Laboratory (Cambridge, MA) and AnaSpec, Inc (San Jose, CA). The p3XFLAG-CMV-10 (Sigma, St. Louis, MO), pEGFP-C1 and pDsRed-Monomer-N1 (Clontech, Mountain View, CA) vectors were used for transfection of rat and dog MUC1-CD and full length human MUC1 in 293T cells in the presence of Lipofectamine 2000 (Life Technologies, Grand Island, NY).
(§3) Cell lysates were prepared as described. Soluble proteins were immunoprecipitated with anti-FLAG (Sigma, St. Louis, MO), anti-MUC1-C (Thermo Fisher Scientific, Waltham, MA) or a control IgG. The precipitates and lysates not subjected to immunoprecipitation were immunoblotted with anti-MUC1-C, anti-GFP (Abcam, Cambridge, MA), anti-FLAG and anti-FITC (Life Technologies, Grand Island, NY). Reactivity was detected with horseradish peroxidase-conjugated secondary antibodies and chemiluminescence.

[3] = test system: endogenous MUC1-C; assay: Binding to endogenous MUC1-C in H1975 cells, coimmunoprecipitation; assay type: cell-based, human; details: 5 μM FITC-GO-203 overnight, non-reducing
Method: as §2, §3

[4] = test system: DsRedMN1-MUC1; assay: Localization in 293T cells expressing DsRedMN1-MUC1, immunofluorescence microscopy; assay type: cell-based, human; details: 5 μM FITC-GO-203, 3 h
Method: as §2
(§4) 293T cells were transfected with MUC1-pDsRed-Monomer-N1 in the presence of Lipofectamine 2000 for 48 h. The cells were then incubated with FITC-GO-203 for 3 h and examined using a Nikon-deconvolution wide-field epifluorescence system with a 100x oil immersion objective. Images were captured using NIS-element software (Nikon) and analyzed by ImageJ software.

[5] = test system: 293T cells; assay: Localization in untransfected 293T cells, immunofluorescence microscopy; assay type: cell-based; details: FITC-GO-203 alone, 5 μM, 3 h
Method: as §2, §4

[6] = test system: human His-MUC1-CD; assay: In vitro dimerization of human His-MUC1-CD; assay type: biochemical; details: CP-2 or GO-203 150 μM; 1 h at room temperature; non-reducing gel, anti-MUC1-C immunoblot
Method: as §1
(§5) Purified His-MUC1-CD was incubated in PBS or increasing amounts of GO-203 for 1 h at room temperature as described. Proteins were then separated in non-reducing polyacrylamide gels and analyzed by immunoblotting.

[7] = test system: rat GFP-MUC1-CD and FLAG-MUC1-CD; assay: MUC1-CD homodimerization in 293T cells, rat, coimmunoprecipitation; assay type: cell-based; details: 5 μM each day for 3 days, anti-FLAG precipitation
Method: as §2, §3

[8] = test system: dog GFP-MUC1-CD and FLAG-MUC1-CD; assay: MUC1-CD homodimerization in 293T cells, dog, coimmunoprecipitation; assay type: cell-based; details: 5 μM each day for 3 days, anti-FLAG precipitation
Method: as §2, §3

[9] = test system: human GFP-MUC1-CD and FLAG-MUC1-CD; assay: MUC1-CD homodimerization in 293T cells, human, coimmunoprecipitation; assay type: cell-based; details: 5 μM each day for 3 days, anti-FLAG precipitation
Method: as §2, §3

[10] = test system: MUC1-C-expressing carcinoma and leukemia cells; parameters: method as in PMID 21421804, PMID 23867470; details: ref [19],[32]; cited from earlier work
[11] = target: His-MUC1-CD (dog) (dog); assay: non-reducing PAGE with immunoblot; purified His-MUC1-CD in PBS (pH 7.4) or with GO-203 (50, 150, 450 μM) for 1 h at room temperature; immunoblot with anti-MUC1-C
[12] = target: His-MUC1-CD (human) (human); assay: as above
[13] = target: His-MUC1-CD (rat) (rat); assay: as above
[14] = target: T1, GST-MUC1-CD (Homo sapiens, UniProt P15941); assay: MS-bridge analysis of disulfide linkage, MALDI-TOF-MS; assay type: binding; details: incubation with purified GST-MUC1-CD, tryptic digest, single disulfide bridge at the CQC motif
T1 construct: made in house
T1 sequence (P15941 1182-1255 limits assumed): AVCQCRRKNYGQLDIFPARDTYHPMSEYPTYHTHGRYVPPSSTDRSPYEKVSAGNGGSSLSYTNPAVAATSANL
Method: (§6) Binding experiments with MUC1-CD and GO-203 were performed as described. Complexes were eluted from the glutathione beads, dialyzed and concentrated using amicon ultra centrifugal filters (Millipore, Billerica, MA). The complexes were then subjected to non-reducing electrophoresis and stained with Coomassie Blue. Protein bands were excised and analyzed by MALDI-TOF-MS as described. Briefly, gels were cut into small, uniform pieces; the gel pieces were dehydrated with acetonitrile and then rehydrated in 100 mM ammonium bicarbonate followed by 2 washing and drying cycles with ammonium bicarbonate and acetonitrile, respectively. After complete dehydration, gel pieces were suspended in 12.5 ng/μl trypsin in 50 mM ammonium bicarbonate (50 μl). In-gel digestion was carried out at 37°C for 10–12 h and the samples were acidified with 50 μl of 0.5% TFA. Thirty μl of this mixture was desalted by C-18 containing Zip-Tip (Millipore, Billerica, MA). Trypsin-digested peptides were analyzed by MALDI-TOF-MS (ABI-4800). MALDI-TOF-MS analyses were performed using a Reflector method that was optimized for acquisition for the mass range of 700–3500 amu. Data was collected and analyzed using the data Explorer software package (AB-Sciex, Framingham, MA) and MASCOT (ver.2.0.04, Matrix Science, Boston, MA). MS-bridge analysis was done using Protein Prospector (ver.4.27.2 basic and ver.5.0, UCSF). […]

[15] = test system: GST; assay: MS-bridge analysis of disulfide linkage, MALDI-TOF-MS, GST control; assay type: binding; details: tryptic digest of GST+GO-203, dimer peak not observed
Method: as §6

[16] = test system: rat His-MUC1-CD; assay: In vitro dimerization of rat His-MUC1-CD; assay type: biochemical; details: GO-203 50, 150 and 450 μM; 1 h at room temperature; pH 7.4; non-reducing gel, anti-MUC1-C immunoblot
Method: as §1, §5

[17] = test system: dog His-MUC1-CD; assay: In vitro dimerization of dog His-MUC1-CD; assay type: biochemical; details: GO-203 50, 150 and 450 μM; 1 h at room temperature; non-reducing gel, anti-MUC1-C immunoblot
Method: as §1, §5

[18] = target: GST-MUC1-CD (human); assay: saturation binding of FITC-peptide to protein on coated plates (fluorescence); GST-MUC1-CD held on glutathione-coated 96-well plates; FITC-peptide 0.19 μM to 25 μM, 1 h at 37°C; nonspecific binding from GST alone; apparent Kd by non-linear regression
[19] = target: His-MUC1-CD (human) (human); assay: saturation binding of FITC-peptide to protein on coated plates (fluorescence); His-MUC1-CD held on nickel-coated 96-well plates; FITC-GO-203 0.19 μM to 25 μM, 1 h at 37°C; apparent Kd by non-linear regression

Molecule: N=C(N)NCCC[C@@H](NC(=O)[C@@H](CCCNC(=N)N)NC(=O)[C@@H](CS)NC(=O)[C@@H](CCC(N)=O)NC(=O)[C@@H](CS)NC(=O)[C@@H](CCCNC(=N)N)NC(=O)[C@@H](CCCNC(=N)N)NC(=O)[C@@H](CCCNC(=N)N)NC(=O)[C@@H](CCCNC(=N)N)NC(=O)[C@@H](CCCNC(=N)N)NC(=O)[C@@H](CCCNC(=N)N)NC(=O)[C@@H](CCCNC(=N)N)NC(=O)[C@@H](CCCNC(=N)N)NC(=O)[C@@H](CCCNC(=N)N)NC(=S)Nc1ccc2c(c1)C(=O)OC21c2ccc(O)cc2Oc2cc(O)ccc21)C(=O)N[C@H](CCCCN)C(=O)N[C@H](CC(N)=O)C(=O)O [FITC-GO-203] ({FITC}-[dR][dR][dR][dR][dR][dR][dR][dR][dR][dC][dQ][dC][dR][dR][dK][dN]-OH; N-terminus and C-terminus assumed)
interaction with GST-MUC1-CD(AQA) [1]: no interaction was evident | complex formation with endogenous MUC1-C ([2]; ZR-75-1 breast cancer cells, anti-MUC1-C precipitates, anti-FITC immunoblot): forms complexes with MUC1-C | interaction with MUC1-C monomeric and oligomeric forms ([2]; ZR-75-1 cells, entire immunoblots): interacts with the different MUC1-C monomeric and oligomeric forms | interaction with MUC1-C monomeric and oligomeric forms ([3]; H1975 cells, entire immunoblots): interacts with the different MUC1-C monomeric and oligomeric forms | association with endogenous MUC1-C ([3]; H1975 lung cancer cells, anti-MUC1-C precipitates, anti-FITC immunoblot): associates with endogenous MUC1-C | co-localization of DsRed (MUC1) and FITC signals ([4]; 293T cells expressing DsRedMN1-MUC1): co-localization of the DSRed and FITC signals (Red+Green→Yellow) was observed along the membrane | FITC staining in cells expressing MUC1 compared to the MUC1-null setting ([4]; 293T cells): brighter | localization of FITC signals [5]: localized along the membrane and in the cytosol

Molecule: AQARRKN [CP-2, control peptide, which includes AQARRKN, reference compound]
inhibition of human His-MUC1-CD homodimerization [6]: no effect | inhibition of rat FLAG-MUC1-CD/GFP-MUC1-CD complexes in cells [7]: no apparent effect | inhibition of dog MUC1-CD homodimerization in cells [8]: no effect | inhibition of human MUC1-CD homodimerization in cells [9]: no effect | inhibition of survival of MUC1-C-expressing carcinoma and leukemia cells [10]: not CP-2, inhibits the survival of MUC1-C-expressing carcinoma and leukemia cells

stoichiometry N [11]: 2
Molecule: His-MUC1-CD (dog) (domain or fragment)

stoichiometry N [12]: 2
Molecule: His-MUC1-CD (human) (domain or fragment)

stoichiometry N [13]: 2
Molecule: His-MUC1-CD (rat) (domain or fragment)

Molecule: [R]9-CQCRRKN [GO-203, peptide in which the poly-Arg cell-penetrating domain is linked to CQCRRKN (D-amino acids)]
formation of disulfide bridges with MUC1-CD [14]: forms disulfide bridges specifically with MUC1-CD | formation of disulfide bridges with GST [15]: not with GST | inhibition of rat His-MUC1-CD homodimerization [16]: decreased homodimerization | inhibition of dog His-MUC1-CD homodimerization [17]: effectively inhibited | inhibition of human His-MUC1-CD homodimerization [6]: effectively inhibited | inhibition of rat FLAG-MUC1-CD/GFP-MUC1-CD complexes in cells [7]: inhibition of the FLAG-MUC1-CD/GFP-MUC1-CD complexes | inhibition of dog MUC1-CD homodimerization in cells [8]: inhibition of MUC1-CD homodimerization | inhibition of human MUC1-CD homodimerization in cells [9]: inhibition of MUC1-CD homodimerization | inhibition of survival of MUC1-C-expressing carcinoma and leukemia cells [10]: inhibits the survival of MUC1-C-expressing carcinoma and leukemia cells

Kd [18]: 880 nM
Molecule: {FITC}-RRRRRRRRRCQCRRKN (cysteine pairing not given here) [FITC-GO-202]

Kd [19]: 860 nM | Kd [18]: 630 nM
Molecule: {FITC}-[dR][dR][dR][dR][dR][dR][dR][dR][dR][dC][dQ][dC][dR][dR][dK][dN] (cysteine pairing not given here) [FITC-GO-203]
